Results reported in patent US11596629B2, “Compounds and methods for treating cancer” (Mayo Foundation for Medical Education and Research, priority 2017, dated 2023).
“Also recorded” adds a separate entry of the source.

Assays:
[1] = test system: 4T1 TNBC breast cancer cells; test: Tumor cell phagocytosis in vitro; format: cell-based; conditions: 4T1 cells
E0771-E2 tumors = test: E0771-E2 tumor bearing mice, SSI-4, PD-1 blockade and combination
Procedure: The checkpoint inhibitor was administered at 100 μg/dose (5 mg/kg) by intraperitoneal (IP) injection.
(§3) To negate the effects of PD-L1 upregulation, the combination of PD-1 antibody-mediated blockade, the receptor for PD-L1, and SSI-4, was tested.
Tumor-infiltrating (TI) leukocytes and lymphocytes were assessed by multicolor flow cytometry on dissociated treated tumor tissue extracted from E0771-E2 bearing mice on day 27 of the study. […] 5G: To determine whether anti-tumor activity of SSI-4/PD-1 combination therapy is dependent on cytotoxic CD8 T lymphocyte activity, CD8 depletion studies were performed in mice receiving either placebo or combination therapy.

OT-II CD4 T cells = test: OT-II CD4 T cell proliferation in co-culture; format: cell-based; conditions: for OT-II CD4 T cell proliferation: SSI-4 1000 nM
TUBO cells [2] = test: Tumor cell phagocytosis by bone marrow-derived macrophages (BMDM) in vitro; format: cell-based, murine
Procedure: (§1) CRT behaves as a pro-phagocytic signal. The effect of SSI-4 treatment on tumor cell phagocytosis by bone marrow-derived macrophages (BMDM) in vitro was determined. SSI-4 (1000 nM) induced the highest level of phagocytosis in both TUBO and E0771-E2 cells (5 and 13%, respectively) (FIG. 2a). […] Downstream activation of T lymphocytes is dependent on the successful maturation and presentation of antigen by antigen-presenting cells such as macrophages (Woo 2015). SSI-4 driven activation of BMDMs in vitro was evaluated by measuring antigen presentation of chicken ovalbumin (cOva) by MHC class I receptors on BMDM after co-culturing them with cOva-expressing tumor cells. […] CD8+ T lymphocyte activation was evaluated in vitro using splenic T cells derived from OT-I transgenic mice which recognize ovalbumin residues 257-264 in the context of H2Kb. Proliferation and interferon gamma (IFNγ) production was measured in T lymphocytes co-cultured with both cOva-expressing tumor cells and BMDM treated with SSI-4. In addition, in order to evaluate whether the effects of SSI-4 on T lymphocyte activation were direct or mediated through a tumor-specific mechanism, concurrent analysis in SSI-4 treated T lymphocytes alone and T lymphocytes co-cultured with BMDM only was performed.

E0771-E2 cells [3] = test: as above; format: cell-based, murine
Procedure: as §1

TUBO tumors [4] = test: TUBO orthotopic mammary fat pad tumors, SSI-4 monotherapy; format: in vivo, BALB/c mice
Procedure: SSI-4 mediated immunomodulation in vivo was evaluated. TUBO cells were injected orthotopically into the mammary fat pad of BALB/c mice. Animals received either sham or SSI-4 (180 mg/kg) orally (continuous) when tumor burden reached 50-100 mm^3. […] Tumor tissue was harvested 14 days after treatment onset for analysis.
As SSI-4 treatment of tumor cells enhances the antigen presenting capabilities of APCs in vitro, tumor-associated recruitment of professional phagocytes in vivo including macrophages (MP) and dendritic cells (DC) was evaluated. The ratio of tumor leukocyte recruitment by comparing the ratio of cluster of differentiation 45 antigen (CD45) positive to negative cells sorted from dissociated tumor tissue within control and SSI-4 treated mice was determined. Results indicated a 10% increase in the number of tumor-associated leukocytes within SSI-4 treated animals (FIG. 3f). Next, tumor sections were stained for F4/80, a macrophage (MP) marker. […] To determine intra-tumor dendritic cell infiltration, tumors were dissociated and analyzed via flow cytometry for DCs based on CD45^+MHCII^+CD11c^hi expression. […] As tumor-associated macrophage (TAM) cells can be correlated with either a tumor-suppressive or pro-inflammatory phenotype, we sorted this population identified by MHCII^+CD11c^loF4/80^+ based on the polarization markers interleukin-1β (IL-1β) and IL-10, comparing the expression profiles from both treatment groups as well as mammary tissue extracted from non-tumor bearing mice.
SSI-4 mediated APC activation could augment T lymphocyte infiltration and activation. […] The maturation status of T lymphocytes from CD3+ cells isolated from the spleen of treated animals by comparing the ratio of CD44 to CD62L expression in either CD4 or CD8 T-cells was examined. […] The activation status of T lymphocytes isolated from digested tumors was also assessed. […] Granzyme B-positive CD8 T-cells were also enriched in SSI-4 treated tumors (FIG. 4f), another marker for activated CD8+ T lymphocytes.

OT-I CD8 T cells = test: CD8+ T lymphocyte activation in vitro (proliferation, IFNγ) in co-culture with cOva-expressing tumor cells and BMDM; format: cell-based, mice; conditions: for interferon gamma (IFNγ) production in OT-I CD8 T cells / OT-I CD8 T cell proliferation: SSI-4 1000 nM
Procedure: as §1

TUBO cells [5] = test: Antigen presentation of cOva by MHC class I on BMDM co-cultured with cOva-expressing tumor cells; format: cell-based, murine
Procedure: as §1

E0771-E2 cells [6] = test: as above; format: cell-based, murine
Procedure: as §1

[7] = test system: TUBO, E0771-E2, and N202 tumor cells; test: ER stress activation in tumor cells (p-eIF2α Ser51, CHOP levels); format: cell-based, murine; conditions: SSI-4 10-1000 nM
Text: (§2) SSI-4 induces ER stress in tumor cells. […] ER stress can provoke a therapeutically relevant adaptive immune response against malignant cells through the emission of immunostimulatory signals, or damage-associated molecular patterns (DAMPs) such as heat shock proteins and translocation of calreticulin (CRT) to the plasma membrane (17). In particular, phosphorylation of eIF2a has been reported to mediate CRT translocation (20) which is correlated with the induction of immunogenic cell death (ICD) and favorable disease outcome in a variety of malignancies (17).

TUBO tumors [8] = test: TUBO HER2-positive tumors, SSI-4, PD-1 blockade and combination, CD8 depletion; conditions: SSI-4 monotherapy
Procedure: Materials and methods: The checkpoint inhibitor used was a mouse anti-PD-1 that was purchased from BioXCell (catalog #BE0146). The checkpoint inhibitor was administered at 100 μg/dose (5 mg/kg) by intraperitoneal (IP) injection.
as §3

[9] = test system: E0771 TNBC breast cancer cells; test: Tumor cell phagocytosis in vitro; format: cell-based
Procedure: as §1

[10] = test system: live tumor cells (HER2-positive and TNBC breast cancer); test: Plasma membrane translocation of calreticulin, flow cytometry on live tumor cells; format: cell-based, murine; conditions: 48 hour treatment
Procedure: Significance shown for 1000 nM dose (anova).
as §2

[11] = splenic CD3+ cells, CD44 to CD62L
[12] = tumor tissue 14 days after treatment onset
[13] = SSI-4 treated T lymphocytes alone or T lymphocyte-BMDM co-cultures

SMILES: CNC(=O)c1ccnc(NC(=O)N2CCC(Oc3ccccc3Cl)CC2)c1 [SSI-4, 2-{[4-(2-Chlorophenoxy)piperidine-1-carbonyl]amino}-N-methylpyridine-4-carboxamide]
- SSI-4 induced phagocytosis with adjuvant CRT neutralization [1]: reversed
- level of phagocytosis ([1]; SSI-4 1000 nM): 12.5%
- programmed death ligand-1 (PD-L1) expression in tumor (E0771-E2 tumors; EO771-E2 tumor bearing mice): induces
- protein expression of PD-L1 in tumor-infiltrating dendritic and macrophage cells (E0771-E2 tumors; FIG. 25): significant changes
- improved median survival compared to PD-1 monotherapy (E0771-E2 tumors; SSI-4 monotherapy): ~20%
- improved median survival compared to sham (E0771-E2 tumors; SSI-4 monotherapy): approximately 22%
- effector/cytotoxic CD8+ T lymphocytes in tumor (E0771-E2 tumors; dissociated tumors): increased; also recorded: significant increase
- increase of intratumor infiltration of macrophages (E0771-E2 tumors; flow cytometry, day 27): approximately 8%
- protein expression of checkpoints PD-L1 or PD-L2 in dendritic cells (E0771-E2 tumors; intratumor dendritic cells): No significant changes
- PD-L1 expression on macrophages (E0771-E2 tumors; intratumor macrophages): increased PD-L1; also recorded: strongly induce PD-L1 expression on macrophages
- intratumor population of T regulatory cells (E0771-E2 tumors; mouse, in vivo): deleterious effect
- tumor infiltrating macrophages (E0771-E2 tumors; mouse, in vivo): increased the number of tumor infiltrating macrophages; also recorded: significant influx
- checkpoint protein expression (CTLA-4, TIM3) on CD4 and CD8 positive T lymphocytes (E0771-E2 tumors; tumor-infiltrating T lymphocytes): upregulation of both CTLA-4 and TIM-3
- SSI-4 enhanced OT-II CD4 T cell proliferation with adjuvant CRT neutralization (OT-II CD4 T cells; E0771-E2): inhibited
- SSI-4 enhanced OT-II CD4 T cell proliferation with adjuvant CRT neutralization (OT-II CD4 T cells; MMTV-neu): inhibited
- OT-II CD4 T cell proliferation (OT-II CD4 T cells; E0771-E2): significantly enhanced
- OT-II CD4 T cell proliferation (OT-II CD4 T cells; MMTV-neu): significantly enhanced
- SSI-4 induced phagocytosis with adjuvant CRT neutralization (TUBO cells [2]; CRT blocking antibody): reversed; also recorded: significantly abrogate
- level of phagocytosis (TUBO cells [2]; SSI-4 1000 nM): 5%
- SSI-4 induced phagocytosis with adjuvant CRT neutralization (E0771-E2 cells [3]; CRT blocking antibody): reversed; also recorded: significantly abrogate
- level of phagocytosis (E0771-E2 cells [3]; SSI-4 1000 nM): 13%
- number of CD4+ tumor-infiltrating populations (TUBO tumors [4]; IHC of tumor sections): significant increase
- number of CD8+ tumor-infiltrating populations (TUBO tumors [4]; IHC of tumor sections): significant increase
- programmed death ligand-1 (PD-L1) expression in tumor (TUBO tumors [4]; IHC of tumor sections, TUBO tumor bearing mice): induces
- pro-inflammatory cytokine (IL-1β) expression in tumor-associated macrophages (TUBO tumors [4]; MHCII+CD11cloF4/80+ cells): increased expression of pro-inflammatory cytokines; also recorded: significant increase in IL-1β
- overall survival (TUBO tumors [4]; SSI-4 180 mg/kg orally (continuous) vs sham): appreciable increase in overall survival
- tumor progression (TUBO tumors [4]; SSI-4 180 mg/kg orally (continuous) vs sham, 180 mg/kg): slower tumor progression; also recorded: tumor progression invariably occurred
- tumor sizes at 30 days after onset of therapy (TUBO tumors [4]; SSI-4 180 mg/kg orally (continuous), when control animals reached endpoint): markedly smaller tumor sizes
- effector CD4 and CD8 T lymphocytes identified by IFNγ (TUBO tumors [4]; T lymphocytes from digested tumors): markedly increased
- increase in the number of tumor-associated leukocytes (CD45) (TUBO tumors [4]; dissociated tumor tissue, SSI-4 vs control): 10%
- number of intra-tumor dendritic cells (TUBO tumors [4]; flow cytometry CD45+MHCII+CD11chi, vs control treated tumors and normal mammary tissue): significant increase
- perforin in tumors (TUBO tumors [4]; mouse, in vivo): significant increase in perforin
- naïve T-cell numbers (TUBO tumors [4]; spleen): concomitant decrease
- memory and effector T-cells among CD4 positive T cell populations (TUBO tumors [4]; [11]): robust induction
- memory and effector T-cells among CD8 positive T cell populations (TUBO tumors [4]; [11]): robust induction
- intra-tumor penetration of macrophages (F4/80) (TUBO tumors [4]; tumor sections): increased intra-tumor penetration
- macrophages, positive F4/80 IHC staining (TUBO tumors [4]; tumor sections): 43.3±8.6 % pop.
- Ki-67 protein staining (TUBO tumors [4]; tumor sections, sham 47.7±6.4): 36.7±6.2 %+nuclei
- cleaved caspase 3 (CC3) staining, H (TUBO tumors [4]; tumor sections, sham H=4.9±2.6): 10.7±3.9
- cleaved caspase 3 (CC3) staining (TUBO tumors [4]; [12]): significant increase
- proliferative capacity of tumors via nuclear Ki67 staining (TUBO tumors [4]; [12]): significant reduction in the proliferative capacity
- Granzyme B-positive CD8 T-cells (TUBO tumors [4]; tumors): enriched
- number of intra-tumor T regulatory cells (dual CD25 and FoxP3 expression) (TUBO tumors [4]; tumors): significantly reduced; also recorded: profound decrease
- SSI-4 enhanced IFNγ production with CRT neutralization (OT-I CD8 T cells; E0771-E2 cells): mild (n.s.) decrease
- SSI-4 enhanced OT-I CD8 T cell proliferation with adjuvant CRT neutralization (OT-I CD8 T cells; E0771-E2 cells): inhibited
- SSI-4 enhanced IFNγ production with adjuvant CRT neutralization (OT-I CD8 T cells; MMTV-neu cells): inhibited; also recorded: abrogate
- SSI-4 enhanced OT-I CD8 T cell proliferation with adjuvant CRT neutralization (OT-I CD8 T cells; MMTV-neu cells): inhibited; also recorded: abrogate
- interferon gamma (IFNγ) production in OT-I CD8 T cells (OT-I CD8 T cells; triple culture with E0771-E2): significantly enhanced; also recorded: potently induce
- OT-I CD8 T cell proliferation (OT-I CD8 T cells; triple culture with E0771-E2 tumor cells and macrophages): significantly enhanced; also recorded: potently induce
- interferon gamma (IFNγ) production in OT-I CD8 T cells (OT-I CD8 T cells; triple culture with MMTV-neu): significantly enhanced; also recorded: potently induce
- OT-I CD8 T cell proliferation (OT-I CD8 T cells; triple culture with MMTV-neu tumor cells and macrophages): significantly enhanced; also recorded: potently induce
- IFNγ production without tumor cells (OT-I CD8 T cells; [13]): No significant changes
- T lymphocyte proliferation without tumor cells (OT-I CD8 T cells; [13]): could not induce T cell proliferation; also recorded: No significant changes
- T cell proliferation with tumor cells bearing empty vector (EV), no cOVA antigen (OT-I CD8 T cells; SSI-4 treatment): could not similarly stimulate T cell proliferation
- SSI-4 enhanced antigen presentation with adjuvant CRT neutralization (TUBO cells [5]): inhibited
- antigen presentation (TUBO cells [5]; SSI-4 100 nM): 8.5%
- antigen presentation (TUBO cells [5]; SSI-4 1000 nM): 8.5%
- SSI-4 enhanced antigen presentation with adjuvant CRT neutralization (E0771-E2 cells [6]): inhibited
- antigen presentation (E0771-E2 cells [6]; SSI-4 100 nM): 5%
- antigen presentation (E0771-E2 cells [6]; SSI-4 1000 nM): 5%
- activation of ER stress (phosphorylated eIF2α at serine51 and CHOP levels) [7]: activation of ER stress
- improved median survival compared to PD-1 monotherapy (TUBO tumors [8]): ~35%
- improved median survival compared to sham (TUBO tumors [8]): approximately 37%
- SSI-4 induced phagocytosis with adjuvant CRT neutralization [9]: reversed
- level of phagocytosis ([9]; SSI-4 1000 nM): 9.4%
- plasma membrane translocation/expression of calreticulin (CRT) ([10]; 10 nM, flow cytometry on live tumor cells): induces plasma membrane translocation of calreticulin; also recorded: potently upregulates plasma membrane expression of CRT
- plasma membrane translocation of calreticulin ([10]; 10-1000 nM, HER2-positive and TNBC breast cancer cells, significance shown for 1000 nM): induces plasma membrane translocation of calreticulin
